Laboratory results published in ChEMBL document CHEMBL5244230, “Artemisinin-derived hybrids and their anticancer activity” (Eur J Med Chem, 2020).

Tested on: DLD-1
Experiment: Cytotoxicity against human DLD-1 cells assessed as cell growth inhibition measured after 48 hrs by MTT assay
Type: functional
Conditions: not given

In order of falling GI50:
1. C[C@H]1[C@H](n2cc(-c3cc(F)cc(F)c3)nn2)O[C@@H]2O[C@@]3(C)CC[C@H]4[C@H](C)CC[C@@H]1[C@@]24OO3  50 nM
2. COc1ccc(-c2cn([C@@H]3O[C@@H]4O[C@@]5(C)CC[C@H]6[C@H](C)CC[C@@H]([C@H]3C)[C@@]46OO5)nn2)cc1  50 nM
3. C[C@H]1[C@H](n2nncc2-c2ccccc2)O[C@@H]2O[C@@]3(C)CC[C@H]4[C@H](C)CC[C@@H]1[C@@]24OO3  40 nM
4. C[C@H]1[C@H](n2nncc2-c2ccc(F)cc2)O[C@@H]2O[C@@]3(C)CC[C@H]4[C@H](C)CC[C@@H]1[C@@]24OO3  40 nM
5. COc1ccc(-c2cnnn2[C@@H]2O[C@@H]3O[C@@]4(C)CC[C@H]5[C@H](C)CC[C@@H]([C@H]2C)[C@@]35OO4)cc1  40 nM
6. C[C@H]1[C@H](n2nncc2-c2ccc(Cl)cc2)O[C@@H]2O[C@@]3(C)CC[C@H]4[C@H](C)CC[C@@H]1[C@@]24OO3  40 nM
7. Cc1ccc(-c2cn([C@H]3O[C@@H]4O[C@@]5(C)CC[C@H]6[C@H](C)CC[C@@H]([C@@H]3C)[C@@]46OO5)nn2)cc1  30 nM
8. C[C@@H]1[C@@H](n2cc(-c3ccccc3C(F)(F)F)nn2)O[C@@H]2O[C@@]3(C)CC[C@H]4[C@H](C)CC[C@@H]1[C@@]24OO3  30 nM

Tested on: not listed separately
Experiment: Cytotoxicity against human U87 cells assessed as cell growth inhibition measured after 48 hrs by MTT assay
Type: functional, U-87MG ATCC
Conditions: U-87 MG

In order of rising GI50:
1. Cc1ccc(-c2cn([C@H]3O[C@@H]4O[C@@]5(C)CC[C@H]6[C@H](C)CC[C@@H]([C@@H]3C)[C@@]46OO5)nn2)cc1  30 nM
2. C[C@@H]1[C@@H](n2cc(-c3ccccc3C(F)(F)F)nn2)O[C@@H]2O[C@@]3(C)CC[C@H]4[C@H](C)CC[C@@H]1[C@@]24OO3  30 nM
3. C[C@H]1[C@H](n2nncc2-c2ccccc2)O[C@@H]2O[C@@]3(C)CC[C@H]4[C@H](C)CC[C@@H]1[C@@]24OO3  40 nM
4. C[C@H]1[C@H](n2nncc2-c2ccc(F)cc2)O[C@@H]2O[C@@]3(C)CC[C@H]4[C@H](C)CC[C@@H]1[C@@]24OO3  40 nM
5. COc1ccc(-c2cnnn2[C@@H]2O[C@@H]3O[C@@]4(C)CC[C@H]5[C@H](C)CC[C@@H]([C@H]2C)[C@@]35OO4)cc1  40 nM
6. C[C@H]1[C@H](n2nncc2-c2ccc(Cl)cc2)O[C@@H]2O[C@@]3(C)CC[C@H]4[C@H](C)CC[C@@H]1[C@@]24OO3  40 nM
7. C[C@H]1[C@H](n2cc(-c3cc(F)cc(F)c3)nn2)O[C@@H]2O[C@@]3(C)CC[C@H]4[C@H](C)CC[C@@H]1[C@@]24OO3  50 nM
8. COc1ccc(-c2cn([C@@H]3O[C@@H]4O[C@@]5(C)CC[C@H]6[C@H](C)CC[C@@H]([C@H]3C)[C@@]46OO5)nn2)cc1  50 nM

Tested on: HeLa
Experiment: Cytotoxicity against human HeLa cells assessed as cell growth inhibition measured after 48 hrs by MTT assay
Type: functional
Conditions: not given

In order of falling GI50:
1. C[C@H]1[C@H](n2cc(-c3cc(F)cc(F)c3)nn2)O[C@@H]2O[C@@]3(C)CC[C@H]4[C@H](C)CC[C@@H]1[C@@]24OO3  50 nM
2. COc1ccc(-c2cn([C@@H]3O[C@@H]4O[C@@]5(C)CC[C@H]6[C@H](C)CC[C@@H]([C@H]3C)[C@@]46OO5)nn2)cc1  50 nM
3. C[C@H]1[C@H](n2nncc2-c2ccccc2)O[C@@H]2O[C@@]3(C)CC[C@H]4[C@H](C)CC[C@@H]1[C@@]24OO3  40 nM
4. C[C@H]1[C@H](n2nncc2-c2ccc(F)cc2)O[C@@H]2O[C@@]3(C)CC[C@H]4[C@H](C)CC[C@@H]1[C@@]24OO3  40 nM
5. COc1ccc(-c2cnnn2[C@@H]2O[C@@H]3O[C@@]4(C)CC[C@H]5[C@H](C)CC[C@@H]([C@H]2C)[C@@]35OO4)cc1  40 nM
6. C[C@H]1[C@H](n2nncc2-c2ccc(Cl)cc2)O[C@@H]2O[C@@]3(C)CC[C@H]4[C@H](C)CC[C@@H]1[C@@]24OO3  40 nM
7. Cc1ccc(-c2cn([C@H]3O[C@@H]4O[C@@]5(C)CC[C@H]6[C@H](C)CC[C@@H]([C@@H]3C)[C@@]46OO5)nn2)cc1  30 nM
8. C[C@@H]1[C@@H](n2cc(-c3ccccc3C(F)(F)F)nn2)O[C@@H]2O[C@@]3(C)CC[C@H]4[C@H](C)CC[C@@H]1[C@@]24OO3  30 nM

Tested on: SiHa
Experiment: Cytotoxicity against human SiHa cells assessed as cell growth inhibition measured after 48 hrs by MTT assay
Type: functional
Conditions: not given

In order of rising GI50:
1. Cc1ccc(-c2cn([C@H]3O[C@@H]4O[C@@]5(C)CC[C@H]6[C@H](C)CC[C@@H]([C@@H]3C)[C@@]46OO5)nn2)cc1  30 nM
2. C[C@@H]1[C@@H](n2cc(-c3ccccc3C(F)(F)F)nn2)O[C@@H]2O[C@@]3(C)CC[C@H]4[C@H](C)CC[C@@H]1[C@@]24OO3  30 nM
3. C[C@H]1[C@H](n2nncc2-c2ccccc2)O[C@@H]2O[C@@]3(C)CC[C@H]4[C@H](C)CC[C@@H]1[C@@]24OO3  40 nM
4. C[C@H]1[C@H](n2nncc2-c2ccc(F)cc2)O[C@@H]2O[C@@]3(C)CC[C@H]4[C@H](C)CC[C@@H]1[C@@]24OO3  40 nM
5. COc1ccc(-c2cnnn2[C@@H]2O[C@@H]3O[C@@]4(C)CC[C@H]5[C@H](C)CC[C@@H]([C@H]2C)[C@@]35OO4)cc1  40 nM
6. C[C@H]1[C@H](n2nncc2-c2ccc(Cl)cc2)O[C@@H]2O[C@@]3(C)CC[C@H]4[C@H](C)CC[C@@H]1[C@@]24OO3  40 nM
7. C[C@H]1[C@H](n2cc(-c3cc(F)cc(F)c3)nn2)O[C@@H]2O[C@@]3(C)CC[C@H]4[C@H](C)CC[C@@H]1[C@@]24OO3  50 nM
8. COc1ccc(-c2cn([C@@H]3O[C@@H]4O[C@@]5(C)CC[C@H]6[C@H](C)CC[C@@H]([C@H]3C)[C@@]46OO5)nn2)cc1  50 nM

Tested on: A 172
Experiment: Cytotoxicity against human A-172 cells assessed as cell growth inhibition measured after 48 hrs by MTT assay
Type: functional
Conditions: not given

In order of falling GI50:
1. C[C@H]1[C@H](n2cc(-c3cc(F)cc(F)c3)nn2)O[C@@H]2O[C@@]3(C)CC[C@H]4[C@H](C)CC[C@@H]1[C@@]24OO3  50 nM
2. COc1ccc(-c2cn([C@@H]3O[C@@H]4O[C@@]5(C)CC[C@H]6[C@H](C)CC[C@@H]([C@H]3C)[C@@]46OO5)nn2)cc1  50 nM
3. C[C@H]1[C@H](n2nncc2-c2ccccc2)O[C@@H]2O[C@@]3(C)CC[C@H]4[C@H](C)CC[C@@H]1[C@@]24OO3  40 nM
4. C[C@H]1[C@H](n2nncc2-c2ccc(F)cc2)O[C@@H]2O[C@@]3(C)CC[C@H]4[C@H](C)CC[C@@H]1[C@@]24OO3  40 nM
5. COc1ccc(-c2cnnn2[C@@H]2O[C@@H]3O[C@@]4(C)CC[C@H]5[C@H](C)CC[C@@H]([C@H]2C)[C@@]35OO4)cc1  40 nM
6. C[C@H]1[C@H](n2nncc2-c2ccc(Cl)cc2)O[C@@H]2O[C@@]3(C)CC[C@H]4[C@H](C)CC[C@@H]1[C@@]24OO3  40 nM
7. Cc1ccc(-c2cn([C@H]3O[C@@H]4O[C@@]5(C)CC[C@H]6[C@H](C)CC[C@@H]([C@@H]3C)[C@@]46OO5)nn2)cc1  30 nM
8. C[C@@H]1[C@@H](n2cc(-c3ccccc3C(F)(F)F)nn2)O[C@@H]2O[C@@]3(C)CC[C@H]4[C@H](C)CC[C@@H]1[C@@]24OO3  30 nM

Tested on: B16
Experiment: Cytotoxicity against mouse B16 cells assessed as cell growth inhibition measured after 48 hrs by MTT assay
Type: functional
Conditions: not given

In order of rising GI50:
1. Cc1ccc(-c2cn([C@H]3O[C@@H]4O[C@@]5(C)CC[C@H]6[C@H](C)CC[C@@H]([C@@H]3C)[C@@]46OO5)nn2)cc1  30 nM
2. C[C@@H]1[C@@H](n2cc(-c3ccccc3C(F)(F)F)nn2)O[C@@H]2O[C@@]3(C)CC[C@H]4[C@H](C)CC[C@@H]1[C@@]24OO3  30 nM
3. C[C@H]1[C@H](n2nncc2-c2ccccc2)O[C@@H]2O[C@@]3(C)CC[C@H]4[C@H](C)CC[C@@H]1[C@@]24OO3  40 nM
4. C[C@H]1[C@H](n2nncc2-c2ccc(F)cc2)O[C@@H]2O[C@@]3(C)CC[C@H]4[C@H](C)CC[C@@H]1[C@@]24OO3  40 nM
5. COc1ccc(-c2cnnn2[C@@H]2O[C@@H]3O[C@@]4(C)CC[C@H]5[C@H](C)CC[C@@H]([C@H]2C)[C@@]35OO4)cc1  40 nM
6. C[C@H]1[C@H](n2nncc2-c2ccc(Cl)cc2)O[C@@H]2O[C@@]3(C)CC[C@H]4[C@H](C)CC[C@@H]1[C@@]24OO3  40 nM
7. C[C@H]1[C@H](n2cc(-c3cc(F)cc(F)c3)nn2)O[C@@H]2O[C@@]3(C)CC[C@H]4[C@H](C)CC[C@@H]1[C@@]24OO3  50 nM
8. COc1ccc(-c2cn([C@@H]3O[C@@H]4O[C@@]5(C)CC[C@H]6[C@H](C)CC[C@@H]([C@H]3C)[C@@]46OO5)nn2)cc1  50 nM
